These are literature values, as cited in patent US20250161331A1, “ANTI-INFLAMMATORY DRUG-CANNABINOID-COMPRISING NANOEMULSIONS AND METHODS OF USING THE SAME” (SGN Nanopharma Inc., priority 2022, published 2025).

Where two headings read alike, the source gives them in different places.

As to `C=C(C)[C@@H]1CCC(C)=C[C@H]1c1c(O)cc(CCCCC)cc1O` [CBD, Cannabidiol], the CBD concentrations decreased entry by setting is: (cannabis oil formulations, same timeframe (3-7 days)) “up to 38%”; (solution as a tea, room temperature, 3-7 days) at most 50%.
